Where two headings read alike, the source gives them in different places.
Legend:
[1] = pH 6.86
[2] = Solubility to water calculated from UV-visible absorbance; details: for Solubility (%): saturated solution in water, diluted with standard buffer pH 6.86 (25° C.), absorbance at maximum absorption wavelength 300-550 nm, calibration curve
[3] = water, thermodynamic from solid
[4] = solubility to water, calculated from solubility (%), density of the solution assumed to be 1.0 g/cm^3

Row | Solubility (%) [2] | solubility [2, 3] | Compound | Solubility (%) [1] | solubility [2, 4]
1 | 17.7% | 200 mM | O=C([O-])COc1cc2c(c(OCC(=O)[O-])c1OCC(=O)[O-])C(=O)c1cc(OCC(=O)[O-])c(OCC(=O)[O-])c(OCC(=O)[O-])c1C2=O.[K+].[K+].[K+].[K+].[K+].[K+] [formula (3-2)] | – | –
2 | 41.8% | 500 mM | O=C1c2cc(OCCOCCOCCO)c(O)c(OCCOCCOCCO)c2C(=O)c2cc(OCCOCCOCCO)c(O)c(OCCOCCOCCO)c21 [formula (3-5)] | – | –
3 | 35.3% | 510 mM | O=C1c2ccccc2C(=O)c2c1cc(OCCCS(=O)(=O)[O-])c(OCCCS(=O)(=O)[O-])c2OCCCS(=O)(=O)[O-].[Na+].[Na+].[Na+] [formula (3-3)] | – | –

Further lines, the molecule ahead of its results:

Row | Compound | Solubility (%) [2] | solubility [2, 3] | Solubility (%) [1] | solubility [2, 4]
4 | O=C1c2ccccc2C(=O)c2cc(S(=O)(=O)[O-])ccc21.[Na+] [9,10-anthraquinone-2-sulfonic acid (Na)] | – | – | 0.7% | –
5 | O=C1c2cccc(S(=O)(=O)[O-])c2C(=O)c2c1cccc2S(=O)(=O)[O-].[K+].[K+] [9,10-anthraquinone-1,8-disulfonic acid (K), reference compound] | 0.2% | – | – | 4 mM
6 | O=C1c2cccc(S(=O)(=O)[O-])c2C(=O)c2cccc(S(=O)(=O)[O-])c21.[Na+].[Na+] [9,10-anthraquinone-1,5-disulfonic acid (Na), reference compound] | 2.7% | – | – | 70 mM
7 | O=C1C(SCCCS(=O)(=O)[O-])=C(SCCCS(=O)(=O)[O-])C(=O)c2ccccc21.[K+].[K+] [formula (2-1)] | 36.6% | 670 mM | – | –

Reference: US20230045245A1, “HETEROCYCLIC COMPOUND OR SALT THEREOF, ACTIVE MATERIAL, ELECTROLYTIC SOLUTION AND REDOX FLOW BATTERY” (NIPPON KAYAKU KABUSHIKI KAISHA, priority 2020, published 2023)
